Data taken from PubChem BioAssay AID1996.
Values after ≈ are worked out from the molar mass of the structure shown.

Details: buffer; pH 7.4; 200.0 µM

Row | SMILES | solubility kinetic [µg/mL]
1 | CC1CCCC(NC(=O)COc2ncnc3ccccc23)C1C (configuration not stated) | 44.6 (≈ 142 µM)
2 | Cc1nc(Cl)sc1C(=O)Nc1cc(F)cc(F)c1 | 20.7 (≈ 71.7 µM)
3 | CC(C)C(=O)Nc1ccc(NC(=O)c2ccc3c(c2)OCO3)cc1 | < 0.3
4 | Cn1cnc([N+](=O)[O-])c1SCC(O)CCl (configuration not stated) | 36.5 (≈ 145 µM)
5 | CCOC(=O)C1=C(C)NC(C)=C(C(=O)OCC)C1C(=O)OCC(=O)NCc1ccco1 | > 65.2
6 | O=C(COC(=O)c1ccc2c(c1)OCO2)Nc1ccccc1 | 4.5 (≈ 15 µM)
7 | Cc1cccc(OCCC(=O)Nc2ccc(C)c(S(=O)(=O)N3CCOCC3)c2)c1 | 21.5 (≈ 51.4 µM)
8 | COc1cc(/C(O)=C(\C#N)c2nc3ccccc3[nH]2)cc(OC)c1OC | 7.1 (≈ 20.2 µM)
9 | Cc1ccccc1C(=O)N1CCN(c2ncccn2)CC1 | > 42.4
10 | COc1ccc(NC(=O)COc2ccccc2)cc1NC(=O)c1ccco1 | 1.2 (≈ 3.28 µM)
11 | CC(C(O)c1cc(=O)c(OCc2ccccc2)co1)[N+](=O)[O-] (configuration not stated) | 33.1 (≈ 108 µM)
12 | CN(C)C(=O)c1ccc(Cl)cc1[N+](=O)[O-] | > 34.3
13 | O=C(COC(=O)c1cc[n+]([O-])cc1)Nc1ccc(Cl)c(C(F)(F)F)c1 | > 56.2
14 | COCCCC/C(=N\OCCN)c1ccc(C(F)(F)F)cc1.O=C(O)/C=C\C(=O)O | > 65.2
15 | COc1ccc(NC(=O)c2ccccc2C)cc1 | 27.1 (≈ 112 µM)
16 | CC1CCCCN1Cc1cccnc1.O=C(O)C(=O)O (configuration not stated) | > 42
17 | Nc1c(N=O)c(=O)[nH]c(=O)n1-c1ccccc1 | > 34.8
18 | CC(=O)N1CCN(C(=O)c2cc3ccccc3o2)CC1 | > 40.8
19 | CCOc1ncccc1C(=O)Nc1ncc(C)s1 | 15.5 (≈ 58.9 µM)
20 | O=CC(Br)P(=O)(N1CCOCC1)N1CCOCC1 (configuration not stated) | > 51.2
21 | COc1ccc(-c2cc(C(=O)Nc3cccc(Cl)c3)no2)cc1 | < 0.4
22 | O=C(CN1CCCCC1)NC(=O)NC1CCCCC1 | > 40.1
23 | O=C(NC1CN2CCC1CC2)c1cccc(Cl)c1 (configuration not stated) | > 39.7

Row | SMILES | solubility kinetic [µg/mL]
24 | Cc1cc(C)c(S(=O)(=O)N2CCCCC2C(=O)O)c(C)c1 (configuration not stated) | > 46.7
25 | O=[N+]([O-])c1ccccc1Oc1ncccc1[N+](=O)[O-] | 27.3 (≈ 105 µM)
26 | CCOC(=O)c1ccc(S(=O)(=O)N2CCN(C/C=C/c3ccccc3)CC2)cc1 | 2.8 (≈ 6.75 µM)
27 | Cc1c(Cl)cccc1NC(=O)CCC(=O)c1cccs1 | 11.9 (≈ 38.7 µM)
28 | COc1cc(S(=O)(=O)NCc2ccccn2)ccc1Cl | > 46.9
29 | Cc1cccn2c(=O)c(C=O)c(N3CCSCC3)nc12 | 16.2 (≈ 56 µM)
30 | O=C(Nc1ccccc1)Nc1nc2ccccc2s1 | < 0.2
31 | Cc1ccc(C(=O)NC2CC3CCC(C2)N3)cc1 (configuration not stated) | > 36.7
32 | CCCC(=O)Oc1ccc(C2NC(=O)c3ccccc3O2)cc1OC (configuration not stated) | 3.9 (≈ 11.4 µM)
33 | NC(=S)Nc1ccc(Cl)c(Cl)c1 | > 33.2
34 | CCOC(=O)Nc1ccc(C(=O)c2ccncc2)cc1 | 4 (≈ 14.8 µM)
35 | OC(CNCCc1c[nH]c2ccccc12)c1ccccc1 (configuration not stated) | 37 (≈ 132 µM)
36 | CCC(Oc1ccccc1)C(=O)Nc1ccccc1N1CCCC1 (configuration not stated) | 7.9 (≈ 24.4 µM)
37 | CCc1noc(C)c1C(=O)OCC(=O)Nc1ccc(F)cc1Cl | 10.8 (≈ 31.7 µM)
38 | CN1CCCN(Cc2nc(-c3ccc(Cl)cc3)no2)CC1 | 40.4 (≈ 132 µM)
39 | C=CCOn1c(=O)c(-c2ccc(Cl)cc2)[n+]([O-])c2ccccc21 | 0.8 (≈ 2.43 µM)
40 | Cc1cc(=O)oc2cc(OCC(=O)NCC3CCC(C(=O)O)CC3)ccc12 (configuration not stated) | > 56
41 | CNC(=O)CCN(Cc1ccco1)S(=O)(=O)c1ccc(OC)c(OC)c1 | 56.2 (≈ 147 µM)
42 | C/C(=N\O)c1c(O)cc(-c2ccccc2)n(-c2ccccc2)c1=O | > 48.1
43 | Oc1ccc(C2Nc3cccc4cccc(c34)N2)cc1 | > 39.3
44 | O=C(Cc1ccccc1)NCCc1cnc[nH]1 | > 34.4
45 | O=C(CCCC(=O)c1ccccc1)NCCc1ccccc1 | > 44.3
46 | CCCn1c2ccccc2c2cnn(CC(=O)N(CC)CC)c(=O)c21 | > 51.1

Row | SMILES | solubility kinetic [µg/mL]
47 | CC(=O)Nc1ccc(S(=O)(=O)N(C)CC(=O)NC2CCCCCCC2)cc1 | > 59.3
48 | Cc1ccccc1C1NC(=S)NC2=C1C(=O)CC(C)(C)C2 (configuration not stated) | 39.3 (≈ 131 µM)
49 | Cn1cnc([N+](=O)[O-])c1Sc1ccc(C(C)(C)C)cc1 | 6.1 (≈ 20.9 µM)
50 | Cc1ccc(Cn2c(CCCO)nc3ccccc32)cc1 | 34.5 (≈ 123 µM)
51 | Cc1ccccc1NC(=O)C1COc2ccccc2O1 (configuration not stated) | 32.6 (≈ 121 µM)
52 | O=C(COC(=O)c1nsc(Cl)c1Cl)NC1CCCCC1 | > 50.6
53 | CCNc1nc(SC(C)C(=O)OC)nc(N(C)C)n1 (configuration not stated) | 30 (≈ 105 µM)
54 | COc1cc(OC)cc(C(=O)N[C@H](C(=O)OCC(=O)c2ccc(C)c([N+](=O)[O-])c2)C(C)C)c1 | 28.8 (≈ 62.8 µM)
55 | CC(C)CCC(C(=O)O)C(C)CC(=O)NNC(=O)c1ccco1 (configuration not stated) | > 48.7
56 | CCCc1nnc(NC(=O)C2CC(=O)N(CCc3ccc(F)cc3)C2)s1 (configuration not stated) | > 56.5
57 | CC(=O)Nc1ccc(S(=O)(=O)N2C(C)CCCC2C)cc1 (configuration not stated) | > 46.6
58 | CC(=O)N1CCN(S(=O)(=O)c2ccc(C)cc2)C1C (configuration not stated) | > 42.4
59 | COc1ccc(CCNS(=O)(=O)c2cn(C)nc2C)cc1 | > 46.4
60 | O=C(NC1CC1)c1cccc(NC(=O)c2cn3ccccc3n2)c1 | > 48.1
61 | COc1cccc(Nc2nc3ccc(OC)cc3s2)c1 | 2.8 (≈ 9.78 µM)
62 | CC(C)(C)[C@]1(O)CCN2C[C@H]3c4ccccc4CCc4cccc(c43)[C@@H]2C1.Cl | 59.3
63 | Cc1ccc(NC(=O)c2cc(C)no2)cc1 | 26.2 (≈ 121 µM)
64 | CCn1cc(C(=O)NCCC(=O)NCCCO)c(=O)c2cc3c(cc21)OCO3 | > 58.4
65 | O=c1[nH]c2ccccc2nc1C(Nc1ccccc1)c1ccccc1 (configuration not stated) | < 0.2
66 | CN1CCN(C(=O)c2cc([N+](=O)[O-])ccc2Cl)CC1 | > 42.6
67 | Cc1cc(C)nc(SCCC(=O)Nc2ccc(F)cc2)n1 | > 45.8
68 | O=C(COC(=O)COc1cc(Cl)c(Cl)cc1Cl)NC1CC1 | 23.6 (≈ 66.9 µM)

Continued, values first:

Row | solubility kinetic [µg/mL] | SMILES
69 | > 45.8 | CC1CCCCC1NC(=O)Cn1cnc2sccc2c1=O (configuration not stated)
70 | > 53.3 | COc1ccc2[nH]c(C(=O)O)c(NC(=O)c3ccccc3[N+](=O)[O-])c2c1
71 | 36.6 | COc1ccc(Nc2c3c(nc4ccc(C)cc24)CCC3)cc1.Cl
72 | > 39.8 | COC(=O)c1ccc(NC(=O)[C@H](C)NC(N)=O)cc1
73 | > 52.3 | COc1ccc(Cl)cc1NC(=O)CN(C)C(=O)/C=C/c1ccco1
74 | 41.8 (≈ 117 µM) | COc1ccccc1N1CCN(C(=O)c2cc(C(C)(C)C)oc2C)CC1
75 | > 48.1 | COc1ccccc1OCCNC(=O)C1CCN(C(C)=O)CC1
76 | < 0.3 | O=C(NCCc1ccccc1)c1c(O)c2ccccc2[nH]c1=O
77 | 15.4 (≈ 48 µM) | O=CNc1ccc(OC(=O)c2cncc(Br)c2)cc1
78 | > 68.8 | O=[N+]([O-])c1ccc(Cl)c(S(=O)(=O)Nc2cccc(S(=O)(=O)NC3=NCCC3)c2)c1
79 | > 51.4 | CC(C)(C)OC(=O)NCCC(=O)N/N=C/c1cccc2cccnc12
80 | > 49.9 | O=C(NCCCCNC(=O)c1ccccc1F)c1ccccc1F
81 | 34.7 (≈ 108 µM) | CCOc1ccc(CN(C)C(=O)c2ccc3ccccc3n2)cc1
82 | > 43.9 | COC(=O)c1ccccc1NC(=O)NN1CCN(C)CC1
83 | > 45.2 | Cc1noc(C)c1CN1C(=O)c2ccc([N+](=O)[O-])cc2C1=O
84 | 41.1 (≈ 126 µM) | COc1ccc(C(O)(CCN2CCOCC2)c2ccccc2)cc1 (configuration not stated)
85 | 14.2 (≈ 50.1 µM) | CSc1cccc(NS(=O)(=O)c2cn(C)cn2)c1
86 | 3.8 (≈ 10.2 µM) | COc1ccc(NC(=O)CON=CC(=O)Nc2ccc(C)cc2)c(OC)c1
87 | < 0.3 | Cc1ccc(NC(=O)NC2CCCc3ccccc32)cc1 (configuration not stated)
88 | > 51.5 | O=C(O)c1ccc2c(c1)C(=O)N(c1ccccc1-c1ccccc1)C2=O
89 | 1.9 (≈ 6.98 µM) | O=C(Nc1ccon1)Nc1cccc(Cl)c1Cl
90 | > 49.9 | COc1cc(/C=C2\SC(N3CCC(C)CC3)=NC2=O)ccc1O
91 | > 45.7 | CC(Sc1nccn1C)C(=O)Nc1ccc(C(N)=O)cc1 (configuration not stated)
92 | 35 (≈ 117 µM) | CC(=O)c1cccc(NC(=O)COC(=O)c2ccccn2)c1
93 | 0.6 (≈ 1.92 µM) | CNc1nc(Cl)c(SC)c(NCc2ccc(F)cc2)n1

Row | solubility kinetic [µg/mL] | SMILES
94 | 41.8 (≈ 141 µM) | COc1ccc(S(=O)(=O)N2CCN3CCCC3C2)cc1 (configuration not stated)
95 | 41.1 (≈ 121 µM) | O=C(N/C(=C\c1ccco1)C(=O)N1CCC(O)CC1)c1ccccc1
96 | 1.4 (≈ 3.57 µM) | COc1ccc(-n2c(=S)[nH]c3sc4c(c3c2=O)CCc2ccccc2-4)cc1
97 | > 81.7 | Cc1noc(NS(=O)(=O)c2ccc(NC(=O)c3ccccc3NS(=O)(=O)c3ccc(F)cc3)cc2)c1C
98 | 0.9 (≈ 2.9 µM) | CC1CCCC(NC(=O)/C=C/c2c(F)cccc2Cl)C1C (configuration not stated)
99 | > 49.1 | OCCSc1nc(N2CCOCC2)nc(N2CCOCC2)n1
100 | 2 (≈ 5.59 µM) | NC(=NC(=O)c1ccc(OCC(F)(F)F)nc1)c1ccc(Cl)cc1
101 | > 46.9 | O=C(COc1ccc(Cl)cc1[N+](=O)[O-])N1CCCCCC1
102 | > 35.6 | COc1ccc(OC(=O)N2CCOCC2)cc1
103 | 43.3 (≈ 116 µM) | COC(=O)c1ccc(-c2noc(CN3CCCC(CNC(C)=O)C3)n2)cc1 (configuration not stated)
104 | > 45 | N#Cc1c(-c2cccc([N+](=O)[O-])c2)nc2n(c1=O)CCS2
105 | > 46.6 | Cc1ccc(C(=O)Nc2cccnc2N2CCN(C)CC2)cc1
106 | > 42.7 | Cc1ccsc1C(=O)NCCc1c[nH]c2ccccc12
107 | > 41.3 | Cc1ccccc1NC(=S)NNC(=O)c1ccco1
108 | > 52.1 | O=[N+]([O-])c1ccc(C(O)C(CO)NC(=S)Nc2ccccc2)cc1 (configuration not stated)
109 | 45.8 (≈ 143 µM) | COc1ccc(CNC(=O)c2cncc(Br)c2)cc1
110 | 2.2 (≈ 6.77 µM) | CCCNC(=S)N1CCC(C(=O)c2ccc(Cl)cc2)CC1
111 | > 34.7 | O=c1[nH]cc(NCCc2ccccc2)c(=O)[nH]1
112 | 14.1 (≈ 33 µM) | CN(Cc1cccs1)C(=O)c1ccc(Cl)c(S(=O)(=O)N2CCCCCC2)c1
113 | > 45.7 | COc1ccc(C)cc1Nc1c2c(nc3ccccc13)CCC2
114 | 2.4 (≈ 7.99 µM) | COc1cccc(-n2cc(-c3ccc(F)cc3)[nH]c2=S)c1
115 | 41.2 (≈ 125 µM) | COC(=O)c1onc(-c2c(Cl)cccc2Cl)c1C(=O)OC
116 | > 31.1 | CC1CCCCC1NC(=O)c1ccco1 (configuration not stated)
117 | 44.1 | COc1cccc(NC(=O)CN2CCCCCC2)c1.Cl
